Where two headings read alike, the source gives them in different places.
Legend:
Format in all cases: in vivo
[1] = test system: Kochia scoparia; assay: Greenhouse post-emergence herbicidal activity, KCHSC; details: scale 0 to 100
Excerpt: (§1) The culture containers used were plastic flowerpots containing loamy sand with approximately 3.0% of humus as the substrate. The seeds of the test plants were sown separately for each species.
(§2) For the post-emergence treatment, the test plants were first grown to a height of 3 to 15 cm, depending on the plant habit, and only then treated with the active ingredients which had been suspended or emulsified in water. For this purpose, the test plants were either sown directly and grown in the same containers, or they were first grown separately as seedlings and transplanted into the test containers a few days prior to treatment.
(§3) Depending on the species, the plants were kept at 10-25° C. or 20-35° C., respectively.
(§4) The test period extended over 2 to 4 weeks. During this time, the plants were tended, and their response to the individual treatments was evaluated.
(§5) Evaluation was carried out using a scale from 0 to 100. 100 means no emergence of the plants, or complete destruction of at least the aerial moieties, and 0 means no damage, or normal course of growth. A good herbicidal activity is given at values of at least 70 and a very good herbicidal activity is given at values of at least 85.

[2] = test system: Chenopodium album; assay: Greenhouse post-emergence herbicidal activity, CHEAL
Excerpt: as §1, §2, §3, §4, §5

[3] = test system: Cirsium arvense; assay: Greenhouse post-emergence herbicidal activity, CIRAR; details: CIRAR, 0.125 kg/ha, scale 0 to 100
Excerpt: as §1, §2, §3, §4, §5

[4] = test system: Echinocloa crus-galli; assay: Greenhouse post-emergence herbicidal activity, ECHCG; details: Echinochloa crus-galli, ECHCG
Excerpt: as §1, §2, §3, §4, §5

[5] = test system: Amaranthus retroflexus; assay: Greenhouse post-emergence herbicidal activity, AMARE; details: AMARE
Excerpt: as §1, §2, §3, §4, §5

[6] = test system: Oryza sativa; assay: Greenhouse post-emergence herbicidal activity on crop ORYSA (rice)
Excerpt: as §1, §2, §3, §4, §5

[7] = test system: Abutilon theophrasti; assay: Greenhouse post-emergence herbicidal activity, ABUTH; details: ABUTH
Excerpt: as §1, §2, §3, §4, §5

[8] = test system: Zea mays; assay: Greenhouse post-emergence herbicidal activity on crop ZEAMX (corn, maize); set-up: key: 0 = no damage/normal growth, 100 = no emergence or complete destruction
Excerpt: as §1, §2, §3, §4, §5

[9] = test system: Ambrosia artemisiifolia; assay: Greenhouse post-emergence herbicidal activity, AMBEL; details: scale 0 to 100
Excerpt: as §1, §2, §3, §4, §5

[10] = test system: Setaria viridis; assay: Greenhouse post-emergence herbicidal activity, SETVI
Excerpt: as §1, §2, §3, §4, §5

[11] = test system: Stellaria media; assay: Greenhouse post-emergence herbicidal activity, STEME
Excerpt: as §1, §2, §3, §4, §5

[12] = 2 kg/ha, scale 0 to 100, read-out: Herbicidal activity
[13] = ORYSA (rice, crop), 0.031 kg/ha, scale 0 to 100
[14] = ORYSA (rice, crop), 0.063 kg/ha, scale 0 to 100
[15] = ZEAMX (corn, crop), 0.031 kg/ha, scale 0 to 100
[16] = ZEAMX (corn, crop), 0.063 kg/ha, scale 0 to 100
[17] = ZEAMX (corn, crop), 0.125 kg/ha, scale 0 to 100
[18] = ORYSA (rice, crop), 0.125 kg/ha, scale 0 to 100
[19] = application rate 2 kg/ha, read-out: Herbicidal activity
[20] = crop ZEAMX (corn, maize), application rate 0.031 kg/ha
[21] = crop ZEAMX (corn, maize), application rate 0.063 kg/ha
[22] = crop ZEAMX (corn, maize), application rate 0.125 kg/ha
[23] = crop ORYSA (rice), application rate 0.031 kg/ha

Compound | pest or weed control at 31 g/ha ([2]; 0.031 kg/ha, scale 0 to 100) [%] | pest or weed control at 63 g/ha ([2]; 0.063 kg/ha, scale 0 to 100) [%] | pest or weed control at 125 g/ha ([2]; 0.125 kg/ha, scale 0 to 100) [%] | pest or weed control at 2000 g/ha [4, 12] [%] | pest or weed control at 31 g/ha ([5]; 0.031 kg/ha, scale 0 to 100) [%] | pest or weed control at 63 g/ha ([5]; 0.063 kg/ha, scale 0 to 100) [%] | pest or weed control at 125 g/ha ([5]; 0.125 kg/ha, scale 0 to 100) [%] | pest or weed control at 2000 g/ha [5, 12] [%] | Herbicidal activity [6, 13] | Herbicidal activity [6, 14] | pest or weed control at 2000 g/ha [7, 12] [%] | Herbicidal activity [8, 15] | Herbicidal activity [8, 16] | pest or weed control at 31 g/ha ([4]; 0.031 kg/ha, scale 0 to 100) [%] | pest or weed control at 63 g/ha ([4]; 0.063 kg/ha, scale 0 to 100) [%] | pest or weed control at 125 g/ha ([4]; 0.125 kg/ha, scale 0 to 100) [%] | Herbicidal activity [8, 17] | Herbicidal activity [6, 18] | pest or weed control at 63 g/ha ([2]; application rate 0.063 kg/ha) [%] | pest or weed control at 125 g/ha ([2]; application rate 0.125 kg/ha) [%] | other results
CC1(C)c2cccnc2C(O)=C(c2c(Cl)ccc(NS(C)(=O)=O)c2Cl)S1(=O)=O [I-6, N-[2,4-dichloro-3-(8-hydroxy-5,5-dimethyl-6,6-dioxo-thiopyrano[4,3-b]pyridin-7-yl)phenyl]methanesulfonamide] | 95 | 98 | 98 | 100 | 85 | 95 | 98 | 100 | 0 | 40 | 100 |  |  |  |  |  |  |  |  |  | Herbicidal activity ([1]; 0.031 kg/ha): 90; Herbicidal activity ([1]; 0.063 kg/ha): 98; pest or weed control at 125 g/ha [3]: 100%
CCN(c1c(Cl)ccc(C2=C(O)c3ncccc3CS2(=O)=O)c1Cl)S(C)(=O)=O [I-8, N-[2,6-dichloro-3-(8-hydroxy-6,6-dioxo-5H-thiopyrano[4,3-b]pyridin-7-yl)phenyl]-N-ethyl-methanesulfonamide] | 100 | 100 | 100 | 100 | 100 | 90 |  | 100 | 0 | 25 | 100 | 0 | 0 | 90 | 95 | 95 |  |  |  |  | 
Cc1c(C2=C(OC(=O)C(C)(C)C)c3ncccc3C(C)(C)S2(=O)=O)cccc1N(C)S(C)(=O)=O [I-13, [5,5-dimethyl-7-[2-methyl-3-[methyl(methylsulfonyl)amino]phenyl]-6,6-dioxo-thiopyrano[4,3-b]pyridin-8-yl] 2,2-dimethylpropanoate] |  |  |  | 75 |  |  |  | 100 |  |  |  |  |  |  |  |  | 0 | 0 |  |  | Herbicidal activity ([1]; 0.125 kg/ha): 90
CN(c1cccc(C2=C(O)c3ncccc3C(C)(C)S2(=O)=O)c1Cl)S(C)(=O)=O [I-17, N-[2-chloro-3-(8-hydroxy-5,5-dimethyl-6,6-dioxo-thiopyrano[4,3-b]pyridin-7-yl)phenyl]-N-methyl-methanesulfonamide] | 100 | 100 | 100 | 100 | 98 | 100 | 100 | 100 |  | 10 | 100 |  |  | 95 |  |  |  |  |  |  | Herbicidal activity ([9]; 0.063 kg/ha): 100; Herbicidal activity ([9]; 0.125 kg/ha): 100
CN(C)S(=O)(=O)Oc1c(Cl)ccc(C2=C(O)c3ncccc3CS2(=O)=O)c1Cl [I-22] |  | 95 | 100 | 100 |  | 70 | 75 | 100 | 30 | 35 |  | 0 | 0 | 80 | 90 | 95 | 15 | 40 |  |  | Herbicidal activity ([10]; 2 kg/ha, scale 0 to 100): 98
Cc1c(C2=C(O)c3ncccc3C(C)(C)S2(=O)=O)ccc(Cl)c1N(C)S(C)(=O)=O [I-29, N-[6-chloro-3-(8-hydroxy-5,5-dimethyl-6,6-dioxo-thiopyrano[4,3-b]pyridin-7-yl)-2-methyl-phenyl]-N-methyl-methanesulfonamide] | 98 | 98 | 98 |  | 95 | 95 | 98 |  | 0 | 25 |  | 0 | 5 | 85 | 90 | 95 | 15 | 35 |  |  | pest or weed control at 250 g/ha ([2]; 0.25 kg/ha, scale 0 to 100): 98%; Herbicidal activity ([11]; 0.25 kg/ha, scale 0 to 100): 98; pest or weed control at 250 g/ha ([5]; 0.25 kg/ha, scale 0 to 100): 98%
CN(c1c(Cl)ccc(C2=C(OC(=O)C(C)(C)C)c3ncccc3C(C)(C)S2(=O)=O)c1Cl)S(C)(=O)=O [I-30] |  |  |  |  |  |  |  |  |  |  |  |  |  |  |  |  |  |  |  |  | pest or weed control at 2000 g/ha [4, 19]: 100%; pest or weed control at 2000 g/ha [5, 19]: 100%; pest or weed control at 2000 g/ha [7, 19]: 100%
CN(c1c(Cl)ccc(C2=C(O)c3ncccc3CS2(=O)=O)c1C(F)(F)F)S(C)(=O)=O [I-31, N-[6-chloro-3-(8-hydroxy-6,6-dioxo-5H-thiopyrano[4,3-b]pyridin-7-yl)-2-(trifluoromethyl)phenyl]-N-methyl-methanesulfonamide] |  |  |  |  |  |  |  |  |  |  |  |  |  |  |  |  |  |  | 98 | 98 | pest or weed control at 250 g/ha ([2]; application rate 0.25 kg/ha): 98%; Herbicidal activity [8, 20]: 5; pest or weed control at 125 g/ha ([4]; application rate 0.125 kg/ha): 98%; pest or weed control at 250 g/ha ([4]; application rate 0.25 kg/ha): 98%; Herbicidal activity ([11]; application rate 0.031 kg/ha): 80; Herbicidal activity ([11]; application rate 0.063 kg/ha): 100; pest or weed control at 125 g/ha ([5]; application rate 0.125 kg/ha): 98%; pest or weed control at 250 g/ha ([5]; application rate 0.25 kg/ha): 98%; pest or weed control at 31 g/ha ([7]; application rate 0.031 kg/ha): 70%; pest or weed control at 63 g/ha ([7]; application rate 0.063 kg/ha): 90%
CN(c1cccc(C2=C(O)c3ncccc3C(C)(C)S2(=O)=O)c1C(F)(F)F)S(C)(=O)=O [I-36, N-[3-(8-hydroxy-5,5-dimethyl-6,6-dioxo-thiopyrano[4,3-b]pyridin-7-yl)-2-(trifluoromethyl)phenyl]-N-methyl-methanesulfonamide] |  |  |  |  |  |  |  |  |  |  |  |  |  |  |  |  |  |  | 100 | 100 | pest or weed control at 31 g/ha ([2]; application rate 0.031 kg/ha): 100%; Herbicidal activity [8, 20]: 0; Herbicidal activity [8, 21]: 0; Herbicidal activity [8, 22]: 0; pest or weed control at 31 g/ha ([4]; application rate 0.031 kg/ha): 70%; pest or weed control at 63 g/ha ([4]; application rate 0.063 kg/ha): 90%; pest or weed control at 125 g/ha ([4]; application rate 0.125 kg/ha): 95%; pest or weed control at 31 g/ha ([5]; application rate 0.031 kg/ha): 90%; pest or weed control at 63 g/ha ([5]; application rate 0.063 kg/ha): 95%; pest or weed control at 125 g/ha ([5]; application rate 0.125 kg/ha): 98%; Herbicidal activity [6, 23]: 30; Herbicidal activity ([6]; crop ORYSA (rice), application rate 0.063 kg/ha): 40; Herbicidal activity ([6]; crop ORYSA (rice), application rate 0.125 kg/ha): 45
CN(c1c(Cl)ccc(C2=C(O)c3ncc(F)cc3C(C)(C)S2(=O)=O)c1Cl)S(C)(=O)=O [I-38, N-[2,6-dichloro-3-(3-fluoro-8-hydroxy-5,5-dimethyl-6,6-dioxo-thiopyrano[4,3-b]pyridin-7-yl)phenyl]-N-methyl-methanesulfonamide] |  |  |  |  |  |  |  |  |  |  |  |  |  |  |  |  |  |  | 95 | 98 | pest or weed control at 31 g/ha ([2]; application rate 0.031 kg/ha): 98%; Herbicidal activity [8, 20]: 0; Herbicidal activity [8, 21]: 0; Herbicidal activity [8, 22]: 15; pest or weed control at 31 g/ha ([4]; application rate 0.031 kg/ha): 95%; pest or weed control at 63 g/ha ([4]; application rate 0.063 kg/ha): 95%; pest or weed control at 125 g/ha ([4]; application rate 0.125 kg/ha): 100%; Herbicidal activity ([10]; application rate 0.125 kg/ha): 100; pest or weed control at 31 g/ha ([5]; application rate 0.031 kg/ha): 98%; pest or weed control at 63 g/ha ([5]; application rate 0.063 kg/ha): 98%; pest or weed control at 125 g/ha ([5]; application rate 0.125 kg/ha): 98%; Herbicidal activity [6, 23]: 35
